Source: patent US20260132129A1 (Genesis Therapeutics, Inc., priority 2022, published 2026)

Target: T1, PI3Kα H1047R (T47D cells) (Homo sapiens, UniProt P42336, H1047R)
T1 construct: endogenous in cells; host or cells: T47D cells
Assay: PI3Kα cellular assay: pAKT HTRF in T47D cells after EGF stimulation
Assay type: cell-based
Conditions: for IC50: T47D cells (PI3Kα H1047R), pAKT S473 HTRF, EGF stimulation
Procedure, shortened: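 T47D cells (PIK3CA H1047R) serum-starved 16 h, then treated 1 h at 37 °C with compound (10,000 nM top, 3-fold steps to 0.5 nM). After 10 min stimulation with 20 ng/mL EGF, cells were lysed and pAKT measured by HTRF.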

T1 sequence (P42336 whole entry H1047R): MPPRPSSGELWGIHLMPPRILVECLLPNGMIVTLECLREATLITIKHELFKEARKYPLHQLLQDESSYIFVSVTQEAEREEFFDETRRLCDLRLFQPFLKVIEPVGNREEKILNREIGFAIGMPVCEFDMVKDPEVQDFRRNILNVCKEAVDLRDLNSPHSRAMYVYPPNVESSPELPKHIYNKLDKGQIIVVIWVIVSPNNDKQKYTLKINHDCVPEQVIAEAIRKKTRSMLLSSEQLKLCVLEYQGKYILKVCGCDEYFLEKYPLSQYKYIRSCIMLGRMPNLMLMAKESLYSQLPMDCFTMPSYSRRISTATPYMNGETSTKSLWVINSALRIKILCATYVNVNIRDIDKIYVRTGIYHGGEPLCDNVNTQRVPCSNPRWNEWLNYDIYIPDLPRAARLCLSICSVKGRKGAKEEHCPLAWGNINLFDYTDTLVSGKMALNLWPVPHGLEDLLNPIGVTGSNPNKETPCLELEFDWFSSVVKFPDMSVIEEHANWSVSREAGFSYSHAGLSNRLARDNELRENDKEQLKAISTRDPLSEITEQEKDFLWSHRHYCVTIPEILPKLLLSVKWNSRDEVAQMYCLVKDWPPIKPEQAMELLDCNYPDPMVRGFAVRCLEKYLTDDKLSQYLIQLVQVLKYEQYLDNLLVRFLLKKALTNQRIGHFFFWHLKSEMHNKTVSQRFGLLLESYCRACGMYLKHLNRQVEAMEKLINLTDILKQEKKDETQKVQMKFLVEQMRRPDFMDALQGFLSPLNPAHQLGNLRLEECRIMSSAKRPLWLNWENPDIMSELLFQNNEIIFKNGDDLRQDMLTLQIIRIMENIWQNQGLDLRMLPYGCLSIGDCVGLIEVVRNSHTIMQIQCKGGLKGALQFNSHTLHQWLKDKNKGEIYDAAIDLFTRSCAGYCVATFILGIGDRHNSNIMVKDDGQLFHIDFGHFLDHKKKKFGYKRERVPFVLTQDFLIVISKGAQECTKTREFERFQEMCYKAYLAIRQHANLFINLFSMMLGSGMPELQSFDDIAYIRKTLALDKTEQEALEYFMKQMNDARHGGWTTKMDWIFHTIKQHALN
T1 sequence (P27986 whole entry partner): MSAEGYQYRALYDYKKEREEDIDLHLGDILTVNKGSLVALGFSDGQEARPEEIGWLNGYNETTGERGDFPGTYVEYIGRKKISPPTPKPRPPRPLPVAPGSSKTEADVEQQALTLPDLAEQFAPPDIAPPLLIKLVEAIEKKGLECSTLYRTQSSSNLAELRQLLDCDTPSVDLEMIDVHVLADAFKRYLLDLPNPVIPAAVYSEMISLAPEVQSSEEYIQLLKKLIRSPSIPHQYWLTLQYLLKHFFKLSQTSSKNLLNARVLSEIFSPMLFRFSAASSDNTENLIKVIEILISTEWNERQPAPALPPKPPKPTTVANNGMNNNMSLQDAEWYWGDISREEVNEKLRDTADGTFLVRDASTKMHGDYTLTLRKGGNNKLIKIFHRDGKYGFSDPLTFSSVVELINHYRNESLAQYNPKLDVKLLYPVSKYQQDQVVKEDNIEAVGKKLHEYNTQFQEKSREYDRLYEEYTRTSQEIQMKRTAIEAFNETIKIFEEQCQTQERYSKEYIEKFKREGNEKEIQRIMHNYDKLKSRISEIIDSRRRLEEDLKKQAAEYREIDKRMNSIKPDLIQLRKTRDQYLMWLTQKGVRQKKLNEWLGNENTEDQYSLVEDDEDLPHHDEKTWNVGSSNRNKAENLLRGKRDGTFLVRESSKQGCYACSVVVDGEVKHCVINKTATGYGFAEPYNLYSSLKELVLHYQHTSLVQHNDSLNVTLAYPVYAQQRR

SMILES	T47D pAKT S473 HTRF IC50 (H1047R): T47D (H1047R) selectivity over SKBR3 (WT)	IC50 [nM]
CC1=CN2C(=O)C(C)C(c3ccc(CCC(C)(C)C)cc3)N=C2C([C@H](C)Nc2ccccc2C(=O)O)=C1 (stereo partly drawn) [Compound 1151]	C (C denotes ≤5-fold)	
Cc1cc(C(C)Nc2ccccc2C(N)=O)c2nc(-c3cccnc3)c(C)c(=O)n2c1 (stereo not drawn) [Compound 1152]	A (A denotes >20-fold)	100 to 500
Cc1cc([C@@H](C)Nc2ccccc2C(N)=O)c2nc(-c3ccc(C4CC4)nc3)c(C)c(=O)n2c1 [Compound 1153]	A (A denotes >20-fold)	100 to 500
Cc1cc([C@H](C)Nc2ccccc2C(N)=O)c2nc(-c3ccc(C4CC4)nc3)c(C)c(=O)n2c1 [Compound 1154]	C (C denotes ≤5-fold)	> 2000
Cc1cc([C@@H](C)Nc2ccccc2C(=O)O)c2nc(-c3ccnc(C4CC4)c3)cc(=O)n2c1 [Compound 1155]	C (C denotes ≤5-fold)	> 2000
Cc1cc([C@H](C)Nc2ccccc2C(=O)O)c2nc(-c3ccnc(C4CC4)c3)cc(=O)n2c1 [Compound 1156]	A (A denotes >20-fold)	< 100
Cc1cc([C@@H](C)Nc2ccccc2C(=O)O)c2nc(-c3cnc(C)c(Cl)c3)cc(=O)n2c1 [Compound 1157]	A (A denotes >20-fold)	100 to 500
Cc1cc([C@H](C)Nc2ccccc2C(=O)O)c2nc(-c3cnc(C)c(Cl)c3)cc(=O)n2c1 [Compound 1158]	C (C denotes ≤5-fold)	> 2000
CCC(Nc1ccccc1S(N)(=O)=O)c1cc(C)cn2c(=O)cc(N3CCOCC3)nc12 (stereo not drawn) [Compound 1159]	C (C denotes ≤5-fold)	> 2000
Cc1cc(C(C)Nc2ccccc2C(=O)O)c2nc(N3Cc4ccccc4C3)c(C#N)c(=O)n2c1 (stereo not drawn) [Compound 1160]	A (A denotes >20-fold)	< 100
Cc1cc([C@@H](C)Nc2ccccc2)c2nc(N(C)Cc3ccccc3)c(C)c(=O)n2c1 [Compound 1163]	A (A denotes >20-fold)	100 to 500
Cc1cc(C(C)Nc2ccccc2C(=O)O)c2nc(-c3cc(F)cc(C4CC4)c3)c(C)c(=O)n2c1 (stereo not drawn) [Compound 1169]	A (A denotes >20-fold)	< 100
Cc1cc(C(C)Nc2ccccc2C(=O)O)c2nc(-c3ccc(C(C)C)nc3)c(C)c(=O)n2c1 (stereo not drawn) [Compound 1178]	A (A denotes >20-fold)	< 100
Cc1cc(C(C)Nc2cc(F)ccc2C(=O)O)c2nc(-c3ccnc(C4CC4)c3)c(C)c(=O)n2c1 (stereo not drawn) [Compound 1182]	A (A denotes >20-fold)	< 100
CC#Cc1nc2c(C(C)Nc3ccccc3C(=O)O)cc(C)cn2c(=O)c1C (stereo not drawn) [Compound 1185]	B (B denotes 20-fold≥value>5-fold)	500 to 2000
Cc1cc(C(C)Nc2ccccc2C(=O)O)c2nc(C#CC3CC3)c(C)c(=O)n2c1 (stereo not drawn) [Compound 1186]	A (A denotes >20-fold)	100 to 500
C#Cc1ccc(-c2nc3c(C(C)Nc4ccccc4C(=O)O)cc(C)cn3c(=O)c2C)cn1 (stereo not drawn) [Compound 1191]	A (A denotes >20-fold)	< 100
Cc1cc(C(C)Nc2cc(F)ccc2C(=O)O)c2nc(-c3cccc(F)c3)c(C)c(=O)n2c1 (stereo not drawn) [Compound 1197]	A (A denotes >20-fold)	< 100
Cc1cc([C@@H](C)Nc2ccccc2C(=O)O)c2nc(-c3ccnc(C)n3)c(C)c(=O)n2c1 [Compound 1198]	C (C denotes ≤5-fold)	> 2000
Cc1cc(C(C)Nc2ccccc2C(=O)O)c2nc(-c3ccnc(C)c3)c(C)c(=O)n2c1 (stereo not drawn) [Compound 1202]	A (A denotes >20-fold)	
Cc1cc(C(C)Nc2ccccc2C(=O)O)c2nc(-c3cc(C)ncn3)c(C)c(=O)n2c1 (stereo not drawn) [Compound 1203]	A (A denotes >20-fold)	100 to 500

SMILES	T47D pAKT S473 HTRF IC50 (H1047R): T47D (H1047R) selectivity over SKBR3 (WT)	IC50 [nM]
CC#Cc1nc2c([C@@H](C)Nc3ccccc3C(=O)O)cc(C)cn2c(=O)c1C [Compound 1205]	C (C denotes ≤5-fold)	> 2000
CC#Cc1nc2c([C@H](C)Nc3ccccc3C(=O)O)cc(C)cn2c(=O)c1C [Compound 1206]	B (B denotes 20-fold≥value>5-fold)	500 to 2000
Cc1cc([C@H](C)Nc2ccccc2C(=O)O)c2nc(N3Cc4ccccc4C3)c(C#N)c(=O)n2c1 [Compound 1208]	A (A denotes >20-fold)	100 to 500
Cc1cc(C(C)Nc2cccnc2C(=O)O)c2nc(-c3cccc(F)c3)c(C)c(=O)n2c1 (stereo not drawn) [Compound 1223]	A (A denotes >20-fold)	< 100
Cc1cc([C@@H](C)Nc2ccccc2C(=O)O)c2nc(C#CC3CC3)cc(=O)n2c1 [Compound 1224]	C (C denotes ≤5-fold)	
Cc1cc(C(C)Nc2ccccc2C(=O)O)c2nc(-c3cccc(F)c3)c(C3CC3)c(=O)n2c1 (stereo not drawn) [Compound 1231]	A (A denotes >20-fold)	< 100
Cc1cc(C(C)Nc2ccc(F)cc2C(=O)O)c2nc(-c3cccc(F)c3)c(C)c(=O)n2c1 (stereo not drawn) [Compound 1238]	A (A denotes >20-fold)	< 100
Cc1cc(C(C)Nc2cccnc2C(=O)O)c2nc(-c3ccnc(C4CC4)c3)c(C)c(=O)n2c1 (stereo not drawn) [Compound 1241]	A (A denotes >20-fold)	> 2000
Cc1cccc(-c2nc3c(C(C)Nc4ccccc4C(=O)O)cc(C)cn3c(=O)c2C(C)C)c1 (stereo not drawn) [Compound 1245]	A (A denotes >20-fold)	
Cc1cc(C(C)Nc2ccccc2S(N)(=O)=O)c2nc(-c3cccc(F)c3)c(C)c(=O)n2c1 (stereo not drawn) [Compound 1248]	A (A denotes >20-fold)	100 to 500
Cc1cc(C(C)Nc2ccccc2C(=O)O)c2nc(OC3CCCOC3)c(C)c(=O)n2c1 (stereo not drawn) [Compound 1254]	A (A denotes >20-fold)	100 to 500
Cc1cc(C(C)Nc2ccccc2C(=O)O)c2nc(-c3ccc(F)cc3)c(C#N)c(=O)n2c1 (stereo not drawn) [Compound 1260]	A (A denotes >20-fold)	< 100
Cc1cc(C(C)Nc2ccccc2S(N)(=O)=O)c2nc(-c3cccnc3)c(C3CC3)c(=O)n2c1 (stereo not drawn) [Compound 1261]	A (A denotes >20-fold)	100 to 500
CNC(=O)C#Cc1ccc(-c2nc3c([C@@H](C)Nc4ccccc4C(=O)O)cc(C)cn3c(=O)c2C)cc1F [Compound 1264]	A (A denotes >20-fold)	< 100
CNC(=O)C#Cc1ccc(-c2nc3c([C@H](C)Nc4ccccc4C(=O)O)cc(C)cn3c(=O)c2C)cc1F [Compound 1265]	C (C denotes ≤5-fold)	> 2000
Cc1cc([C@H](C)Nc2ccccc2C(=O)O)c2nc(-c3ccc(C#CC4(C)CCC4)c(F)c3)c(C)c(=O)n2c1 [Compound 1267]	C (C denotes ≤5-fold)	
Cc1cc([C@@H](C)Nc2ccccc2C(=O)O)c2nc(-c3ccc(-c4ccc5c(c4)CCO5)c(F)c3)c(C)c(=O)n2c1 [Compound 1268]	A (A denotes >20-fold)	< 100
Cc1cc([C@H](C)Nc2ccccc2C(=O)O)c2nc(-c3ccc(-c4ccc5c(c4)CCO5)c(F)c3)c(C)c(=O)n2c1 [Compound 1269]	C (C denotes ≤5-fold)	> 2000
COCC1=NC(C#N)C(NCc2ccc(-c3nc4c([C@H](C)Nc5ccccc5C(=O)O)cc(C)cn4c(=O)c3C)cc2F)O1 (stereo partly drawn) [Compound 1271]	B (B denotes 20-fold≥value>5-fold)	
Cc1cc(C(C)Nc2ccccc2C(=O)O)c2nc(-c3cnc(C4CCOCC4)nc3)c(C)c(=O)n2c1 (stereo not drawn) [Compound 1272]	A (A denotes >20-fold)	100 to 500
Cc1cc([C@@H](C)Nc2ccccc2S(=O)(=O)O)c2nc(-c3ccc(C4CC4)cc3)c(C3CC3)c(=O)n2c1 [Compound 1274]	A (A denotes >20-fold)	100 to 500
